Article PMC10096064, “Naphth[1,2-d]imidazoles Bioactive from β-Lapachone: Fluorescent Probes and Cytotoxic Agents to Cancer Cells” (Molecules, 2023)
“Also recorded” adds a separate entry of the source. Like-named read-outs stand apart in the source and are kept apart here. Marks after values point to notes of the source that are not given here.

Assays:
[1] = Fluorescence emission spectrum and Stokes shift; type: physicochemical; settings: for ΔST (Stokes shift): difference between absorption and emission wavelengths, solvent per compound as in Table 1; for fluorescence emission intensity / λemis (emission wavelength): excitation at 345 nm, 20 μM; for λemis (emission wavelength): solvent per compound: IM1, IM3, IM4, IM5 CH2Cl2, IM2 DMSO, IM6 CH3OH, IM7 hexane, DAPI H2O
Protocol: The stock solutions were diluted to a concentration of 20 µM, and readings used the excitation wavelength of 345 nm for all compounds. […]

[2] = UV-vis absorption spectra and molar absorptivity coefficient; type: physicochemical; settings: 20 μM
Protocol: A stock solution in dichloromethane (CH2Cl2) of each compound was prepared at a concentration of 4000 µM. From the stock solution, solutions were prepared at a concentration of 20 µM of each compound in four different solvents: hexane, CH2Cl2, dimethyl sulfoxide (DMSO), and methanol (CH3OH). Then, measurement in the range of 190 to 800 nm was performed, with the wavelengths of maximum absorption (λmax) of the compounds in the different solvents shown in Table S1 and Figure S8.
The molar absorptivity coefficient (εAbs) was determined using an equation applied by Lambert–Beer (εAbs = A/LxC, where A—maximum absorbance; L—the optical path of the cuvette used (1 cm); and C—concentration of the analyzed sample in M).

L929 = assay: MTT cytotoxicity assay, nontumor murine fibroblast L929; type: cell-based; settings: Mus musculus, 72 h exposure
Protocol: (§1) The cytotoxic activity of the naphth[1,2-d]imidazoles IM1–IM7 was assessed through colorimetric MTT assay. The ability of these compounds to inhibit cell growth against human glioblastoma (SNB-19), human colorectal carcinoma (HCT-116), and human promyelocytic leukemia (HL-60) cell lines was evaluated. The IC50 was determined for those compounds, returning a percentage inhibition of cell growth above 75% in at least two tested cell lines. […] Doxorubicin was used as the positive control, and cytotoxic activities were expressed as IC50 for all the naphth[1,2-d]imidazoles in Table 2.
(§2) Brain tumor (SNB-19), human colorectal carcinoma (HCT-116), and human promyelocytic leukemia (HL-60) cells were obtained from the National Cancer Institute (NCI) (Bethesda, MD, USA). The L929 cells (mouse fibroblast L cells NCTC clone 929) were purchased from the American Type Culture Collection (Manassas, VA, USA). The cells were grown on RPMI 1640 medium supplemented with 10% fetal bovine serum and 1% antibiotics (penicillin/streptomycin) at 37 °C with 5% CO2.
(§3) Cytotoxic potential of the naphth[1,2-d]imidazoles IM1–IM7 was assessed after 72 h of exposure to the tumor cell lines of human SNB-19, HCT-116, HL-60, and normal cell line L929. Cells were plated in 96-well plates (0.7 × 10^5 cells/well for SNB-19, 0.3 × 10^6 cells/well for HCT-116, and 0.3 × 10^6 cells/well for HL-60). Compounds were dissolved with DMSO at concentrations in the 0.078–10 μg.mL^−1 range. Doxorubicin (0.001–1.10 μM) was used as the positive control, and negative control groups received the same amount of vehicle (DMSO). The cell viability was determined by the reduction of the yellow dye 3-(4,5-dimethyl-2-thiazol)-2,5-diphenyl-2H-tetrazolium bromide (MTT) to a blue formazan product. At the end of the incubation time (69 h), the plates were centrifuged, and the medium was replaced with fresh medium (200 μL) containing 0.5 mg/mL of MTT. Three hours later, the MTT formazan product was dissolved in DMSO (150 μL), and the absorbance was measured using a multi-plate reader (Spectra Count, Packard, ON, Canada). The drug effect was quantified as the percentage of control absorbance of the reduced dye at 550 nm. All experiments were performed in three independent assays, and the half maximal inhibitory concentration (IC50) and their 95% confidence intervals were achieved by nonlinear regression.

SNB-19 = assay: MTT cytotoxicity assay, human glioblastoma SNB-19; type: cell-based; settings: for IC50: Homo sapiens, SNB-19, 72 h exposure, MTT, 95% confidence interval in brackets; for SI SNB-19 (selectivity index): ratio IC50 L929 / IC50 SNB-19
Protocol: as §1, §2, §3

HL-60 = assay: MTT cytotoxicity assay, human promyelocytic leukemia HL-60; type: cell-based; settings: for IC50: Homo sapiens, HL-60, 72 h exposure, MTT, 95% confidence interval in brackets; for SI HL-60 (selectivity index): ratio IC50 L929 / IC50 HL-60
Protocol: as §1, §2, §3

HCT-116 = assay: MTT cytotoxicity assay, human colorectal carcinoma HCT-116; type: cell-based; settings: for IC50: Homo sapiens, HCT-116, 72 h exposure, MTT, 95% confidence interval in brackets; for SI HCT-116 (selectivity index): ratio IC50 L929 / IC50 HCT-116
Protocol: as §1, §2, §3

[3] = parameters: method as in PMID 25995830, PMID 20460521; settings: drawback limiting clinical applications; cited from earlier work
[4] = cited from earlier work
[5] = solvent per compound: IM1, IM3, IM4, IM5 CH2Cl2, IM2 DMSO, IM6 CH3OH, IM7 hexane

| ΔST (Stokes shift) [1] [nm] | fluorescence emission intensity [1] | λemis (emission wavelength) [1] [nm] | εAbs (molar absorptivity coefficient) [2] [M⁻¹ cm⁻¹] | εAbs (molar absorptivity coefficient) [2, 5] | λmax [2, 5] [nm] | melting point [°C] | SMILES | IC50 (L929) [µM] | IC50 (SNB-19) [µM] | SI SNB-19 (selectivity index) (SNB-19) | IC50 (HL-60) [µM] | SI HL-60 (selectivity index) (HL-60) | IC50 (HCT-116) [µM] | SI HCT-116 (selectivity index) (HCT-116) | water solubility [3] | cell growth inhibition / cytotoxicity (in words) (SNB-19; SNB-19, MTT, IC50 not calculated) | cell growth inhibition / cytotoxicity (in words) (HL-60; HL-60, MTT, IC50 not calculated) | cell growth inhibition / cytotoxicity (in words) (HCT-116; HCT-116, MTT, IC50 not calculated) | λmax ([4]; H2O, ref Farahat et al. (2017) [32]) | λabs ([4]; general characteristic of DAPI stated in text, ref not given) [nm] |
| --- | --- | --- | --- | --- | --- | --- | --- | --- | --- | --- | --- | --- | --- | --- | --- | --- | --- | --- | --- | --- |
| 54 | 7.04 × 10^5 au | 422 | 27100 | 2.71 10^4 M^−1cm^−1 | 368 | 182 to 184 | CN(C)c1ccc(-c2nc3c([nH]2)c2c(c4ccccc43)OC(C)(C)CC2)cc1 [IM5, 4,5-dihydro-6,6-dimethyl-6H-2-(4-dimethylaminophenyl)-pyran[b-4,3]naphth[1,2-d]imidazole] | 52.8 | 21.1 | 2.51 | 12.3 | 4.28 | 44.1 | 1.20 |  |  |  |  |  |  |
| 48 |  | 385 |  | 1.35 10^4 M^−1cm^−1 | 337 | 139 to 141 | CC1(C)CCc2c(c3ccccc3c3nc(-c4ccccc4[N+](=O)[O-])[nH]c23)O1 [IM7, 4,5-dihydro-6,6-dimethyl-6H-2-(2-nitrophenyl)-pyran[b-4,3]naphth[1,2-d]imidazole] |  | > 67 |  | 14.9 |  | 35.1 |  |  |  |  |  |  |  |
|  |  |  |  |  |  |  | CC1(C)CCC2=C(O1)c1ccccc1C(=O)C2=O [β-lapachone, β-Lapachone] |  |  |  |  |  |  |  | low |  |  |  |  |  |
| 60 | 2.49 × 10^6 au | 402 | 24300 | 2.43 10^4 M^−1cm^−1 | 342 | 278 to 279 | CC1(C)CCc2c(c3ccccc3c3nc(-c4ccccc4)[nH]c23)O1 [IM2, 4,5-dihydro-6,6-dimethyl-6H-2-(phenyl)-pyran[b-4,3]naphth[1,2-d]imidazole] | 105 | 27 | 3.89 | 29.9 | 3.50 | 21.7 | 4.83 |  |  |  |  |  |  |
| 103 | 1.41 × 10^6 au | 457 | 15700 | 1.57 10^4 M^−1cm^−1 | 354 |  | CC1(C)CCc2c(c3ccccc3c3nc(-c4cccc5ccccc45)[nH]c23)O1 [IM3, 4,5-dihydro-6,6-dimethyl-6H-2-(naphthalenyl)-pyran[b-4,3]naphth[1,2-d]imidazole] |  |  |  |  |  |  |  |  | low growth inhibition; also recorded: low cytotoxicity | low growth inhibition; also recorded: low cytotoxicity | low growth inhibition; also recorded: low cytotoxicity |  |  |
| 49 | 1.36 × 10^6 au | 393 | 14800 | 1.48 10^4 M^−1cm^−1 | 344 |  | CC1(C)CCc2c(c3ccccc3c3nc(-c4ccc(O)cc4)[nH]c23)O1 [IM4, 4,5-dihydro-6,6-dimethyl-6H-2-(4-hidroxyphenyl)-pyran[b-4,3]naphth[1,2-d]imidazole] | > 363 | 31.9 | >11.38 | 8.71 | >41.70 | 23 | >15.76 |  |  |  |  |  |  |
|  |  | 391 |  | 1.85 10^4 M^−1cm^−1 | 411 | 259 to 260 | CC1(C)CCc2c(c3ccccc3c3nc(-c4ccc([N+](=O)[O-])cc4)[nH]c23)O1 [IM6, 4,5-dihydro-6,6-dimethyl-6H-2-(4-nitrophenyl)-pyran[b-4,3]naphth[1,2-d]imidazole] | 152 | 22.3 | 6.81 | 13.7 | 11.09 | 21.1 | 7.18 |  |  |  |  |  |  |
| 50 | 6.90 × 10^4 au | 366 |  | 0.61 10^4 M^−1cm^−1 | 316 | 255 to 259 | CC1(C)CCc2c(c3ccccc3c3nc[nH]c23)O1 [IM1, 4,5-dihydro-6,6-dimethyl-6H-2-pyran[b-4,3]naphth[1,2-d]imidazole] | 186 | 46.4 | 4.00 | 24.2 | 7.68 | 62.1 | 3.00 |  |  |  |  |  |  |
|  | 1.13 × 10^5 au | 452 |  |  |  |  | N=C(N)c1ccc(-c2cc3ccc(C(=N)N)cc3[nH]2)cc1 [DAPI, 4′,6-diamidino-2-phenylindole, reference compound] |  |  |  |  |  |  |  |  |  |  |  | 343 ^d nm | 340 |
|  |  |  |  |  |  |  | COc1cccc2c1C(=O)c1c(O)c3c(c(O)c1C2=O)C[C@@](O)(C(=O)CO)C[C@@H]3O[C@H]1C[C@H](N)[C@H](O)[C@H](C)O1 [Doxorubicin, reference compound] | 3.16 | 2.21 | 1.43 | 0.04 | 79.00 | 0.2 | 15.80 |  |  |  |  |  |  |
